# Test results: patent US9936701B2, “Herbicidal compounds” (Syngenta Participations AG, priority 2013, dated 2018)
# Tested on: a variety of test species
# Assay: Post-emergence herbicidal activity (glasshouse, sprayed after 8 days cultivation, evaluated after 13 days)
# Format: in vivo
# Set-up: key: 5=total damage to plant; 0=no damage to plant
# Conditions: Abutilon theophrasti, rate 1000 g/Ha, scale 0-5
# Method in brief: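 Pot-grown plants, 8 days after sowing, were sprayed with compound formulated in acetone/water (50:50) with 0.5% Tween 20. Glasshouse conditions 24/16° C day/night, 14 h light, 65% humidity; damage scored after 13 days on a 0 (none) to 5 (total) scale.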
row,SMILES,"ABUTH (Abutilon theophrasti) damage score, application post-emergence"
1,"C#CCNC1=C(Cl)C(=O)N(c2cc(C(C)(C)C)on2)C1O (stereo not drawn) [C5, 1-(5-tert-butylisoxazol-3-yl)-4-chloro-2-hydroxy-3-(prop-2-ynylamino)-2H-pyrrol-5-one]",5
2,"CC(C)(C)c1cc(N2C(=O)C(Cl)=C(N)C2O)no1 (stereo not drawn) [C6, 3-amino-1-(5-tert-butylisoxazol-3-yl)-4-chloro-2-hydroxy-2H-pyrrol-5-one]",3
3,CC(C)(C)c1cc(N2C(=O)C(Cl)=C(NC3CCC3)C2O)no1 (stereo not drawn) [C9],0
4,CC(C)(C)CNC1=C(Cl)C(=O)N(c2cc(C(C)(C)C)on2)C1O (stereo not drawn) [C10],0

# Same assay, conditions: Alopecurus myosuroides, rate 1000 g/Ha, scale 0-5
row,SMILES,"ALOMY (Alopecurus myosuroides) damage score, application post-emergence"
1,"C#CCNC1=C(Cl)C(=O)N(c2cc(C(C)(C)C)on2)C1O (stereo not drawn) [C5, 1-(5-tert-butylisoxazol-3-yl)-4-chloro-2-hydroxy-3-(prop-2-ynylamino)-2H-pyrrol-5-one]",5
2,"CC(C)(C)c1cc(N2C(=O)C(Cl)=C(N)C2O)no1 (stereo not drawn) [C6, 3-amino-1-(5-tert-butylisoxazol-3-yl)-4-chloro-2-hydroxy-2H-pyrrol-5-one]",5
3,CC(C)(C)c1cc(N2C(=O)C(Cl)=C(NC3CCC3)C2O)no1 (stereo not drawn) [C9],0
4,CC(C)(C)CNC1=C(Cl)C(=O)N(c2cc(C(C)(C)C)on2)C1O (stereo not drawn) [C10],0

# Same assay, conditions: Amaranthus retroflexus, rate 1000 g/Ha, scale 0-5
row,SMILES,"AMARE (Amaranthus retroflexus) damage score, application post-emergence"
1,"C#CCNC1=C(Cl)C(=O)N(c2cc(C(C)(C)C)on2)C1O (stereo not drawn) [C5, 1-(5-tert-butylisoxazol-3-yl)-4-chloro-2-hydroxy-3-(prop-2-ynylamino)-2H-pyrrol-5-one]",5
2,"CC(C)(C)c1cc(N2C(=O)C(Cl)=C(N)C2O)no1 (stereo not drawn) [C6, 3-amino-1-(5-tert-butylisoxazol-3-yl)-4-chloro-2-hydroxy-2H-pyrrol-5-one]",5
3,CC(C)(C)c1cc(N2C(=O)C(Cl)=C(NC3CCC3)C2O)no1 (stereo not drawn) [C9],2
4,CC(C)(C)CNC1=C(Cl)C(=O)N(c2cc(C(C)(C)C)on2)C1O (stereo not drawn) [C10],0

# Same assay, conditions: Echinochloa crus-galli, rate 1000 g/Ha, scale 0-5
row,SMILES,"ECHCG (Echinochloa crus-galli) damage score, application post-emergence"
1,"C#CCNC1=C(Cl)C(=O)N(c2cc(C(C)(C)C)on2)C1O (stereo not drawn) [C5, 1-(5-tert-butylisoxazol-3-yl)-4-chloro-2-hydroxy-3-(prop-2-ynylamino)-2H-pyrrol-5-one]",5
2,"CC(C)(C)c1cc(N2C(=O)C(Cl)=C(N)C2O)no1 (stereo not drawn) [C6, 3-amino-1-(5-tert-butylisoxazol-3-yl)-4-chloro-2-hydroxy-2H-pyrrol-5-one]",5
3,CC(C)(C)c1cc(N2C(=O)C(Cl)=C(NC3CCC3)C2O)no1 (stereo not drawn) [C9],0
4,CC(C)(C)CNC1=C(Cl)C(=O)N(c2cc(C(C)(C)C)on2)C1O (stereo not drawn) [C10],0

# Same assay, conditions: Setaria faberi, rate 1000 g/Ha, scale 0-5
row,SMILES,"SETFA (Setaria faberi) damage score, application post-emergence"
1,"C#CCNC1=C(Cl)C(=O)N(c2cc(C(C)(C)C)on2)C1O (stereo not drawn) [C5, 1-(5-tert-butylisoxazol-3-yl)-4-chloro-2-hydroxy-3-(prop-2-ynylamino)-2H-pyrrol-5-one]",5
2,"CC(C)(C)c1cc(N2C(=O)C(Cl)=C(N)C2O)no1 (stereo not drawn) [C6, 3-amino-1-(5-tert-butylisoxazol-3-yl)-4-chloro-2-hydroxy-2H-pyrrol-5-one]",5
3,CC(C)(C)c1cc(N2C(=O)C(Cl)=C(NC3CCC3)C2O)no1 (stereo not drawn) [C9],0
4,CC(C)(C)CNC1=C(Cl)C(=O)N(c2cc(C(C)(C)C)on2)C1O (stereo not drawn) [C10],0

# Same assay, conditions: Zea mays, rate 1000 g/Ha, scale 0-5
row,SMILES,"ZEAMX (Zea mays) damage score, application post-emergence"
1,"C#CCNC1=C(Cl)C(=O)N(c2cc(C(C)(C)C)on2)C1O (stereo not drawn) [C5, 1-(5-tert-butylisoxazol-3-yl)-4-chloro-2-hydroxy-3-(prop-2-ynylamino)-2H-pyrrol-5-one]",5
2,"CC(C)(C)c1cc(N2C(=O)C(Cl)=C(N)C2O)no1 (stereo not drawn) [C6, 3-amino-1-(5-tert-butylisoxazol-3-yl)-4-chloro-2-hydroxy-2H-pyrrol-5-one]",5
3,CC(C)(C)c1cc(N2C(=O)C(Cl)=C(NC3CCC3)C2O)no1 (stereo not drawn) [C9],0
4,CC(C)(C)CNC1=C(Cl)C(=O)N(c2cc(C(C)(C)C)on2)C1O (stereo not drawn) [C10],0

# Tested on: a variety of test species
# Assay: Pre-emergence herbicidal activity (glasshouse, sprayed one day after sowing, evaluated after 13 days)
# Format: in vivo
# Set-up: key: 5=total damage to plant; 0=no damage to plant
# Conditions: ABUTH, application pre-emergence, rate 1000 g/Ha, scale 0-5
# Method in brief: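 Seeds sown in standard soil in pots, held one day in glasshouse (24/16 °C day/night, 14 h light, 65% humidity), then sprayed with aqueous solution of compound formulated in acetone/water 50:50 with 0.5% Tween 20. Grown on under same conditions, watered twice daily; damage scored after 13 days (0 = none, 5 = total).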
row,SMILES,"Pre-emergence herbicidal damage score, ABUTH"
1,"C#CCNC1=C(Cl)C(=O)N(c2cc(C(C)(C)C)on2)C1O (stereo not drawn) [C5, 1-(5-tert-butylisoxazol-3-yl)-4-chloro-2-hydroxy-3-(prop-2-ynylamino)-2H-pyrrol-5-one]",5
2,"CC(C)(C)c1cc(N2C(=O)C(Cl)=C(N)C2O)no1 (stereo not drawn) [C6, 3-amino-1-(5-tert-butylisoxazol-3-yl)-4-chloro-2-hydroxy-2H-pyrrol-5-one]",5
3,CC(C)(C)c1cc(N2C(=O)C(Cl)=C(NC3CCC3)C2O)no1 (stereo not drawn) [C9],0
4,CC(C)(C)CNC1=C(Cl)C(=O)N(c2cc(C(C)(C)C)on2)C1O (stereo not drawn) [C10],0

# Same assay, conditions: ALOMY, application pre-emergence, rate 1000 g/Ha, scale 0-5
row,SMILES,"Pre-emergence herbicidal damage score, ALOMY"
1,"C#CCNC1=C(Cl)C(=O)N(c2cc(C(C)(C)C)on2)C1O (stereo not drawn) [C5, 1-(5-tert-butylisoxazol-3-yl)-4-chloro-2-hydroxy-3-(prop-2-ynylamino)-2H-pyrrol-5-one]",3
2,"CC(C)(C)c1cc(N2C(=O)C(Cl)=C(N)C2O)no1 (stereo not drawn) [C6, 3-amino-1-(5-tert-butylisoxazol-3-yl)-4-chloro-2-hydroxy-2H-pyrrol-5-one]",4
3,CC(C)(C)c1cc(N2C(=O)C(Cl)=C(NC3CCC3)C2O)no1 (stereo not drawn) [C9],0
4,CC(C)(C)CNC1=C(Cl)C(=O)N(c2cc(C(C)(C)C)on2)C1O (stereo not drawn) [C10],0

# Same assay, conditions: AMARE, application pre-emergence, rate 1000 g/Ha, scale 0-5
row,SMILES,"Pre-emergence herbicidal damage score, AMARE"
1,"C#CCNC1=C(Cl)C(=O)N(c2cc(C(C)(C)C)on2)C1O (stereo not drawn) [C5, 1-(5-tert-butylisoxazol-3-yl)-4-chloro-2-hydroxy-3-(prop-2-ynylamino)-2H-pyrrol-5-one]",5
2,"CC(C)(C)c1cc(N2C(=O)C(Cl)=C(N)C2O)no1 (stereo not drawn) [C6, 3-amino-1-(5-tert-butylisoxazol-3-yl)-4-chloro-2-hydroxy-2H-pyrrol-5-one]",5
3,CC(C)(C)c1cc(N2C(=O)C(Cl)=C(NC3CCC3)C2O)no1 (stereo not drawn) [C9],3
4,CC(C)(C)CNC1=C(Cl)C(=O)N(c2cc(C(C)(C)C)on2)C1O (stereo not drawn) [C10],2

# Same assay, conditions: ECHCG, application pre-emergence, rate 1000 g/Ha, scale 0-5
row,SMILES,"Pre-emergence herbicidal damage score, ECHCG"
1,"C#CCNC1=C(Cl)C(=O)N(c2cc(C(C)(C)C)on2)C1O (stereo not drawn) [C5, 1-(5-tert-butylisoxazol-3-yl)-4-chloro-2-hydroxy-3-(prop-2-ynylamino)-2H-pyrrol-5-one]",5
2,"CC(C)(C)c1cc(N2C(=O)C(Cl)=C(N)C2O)no1 (stereo not drawn) [C6, 3-amino-1-(5-tert-butylisoxazol-3-yl)-4-chloro-2-hydroxy-2H-pyrrol-5-one]",5
3,CC(C)(C)c1cc(N2C(=O)C(Cl)=C(NC3CCC3)C2O)no1 (stereo not drawn) [C9],0
4,CC(C)(C)CNC1=C(Cl)C(=O)N(c2cc(C(C)(C)C)on2)C1O (stereo not drawn) [C10],0

# Same assay, conditions: SETFA, application pre-emergence, rate 1000 g/Ha, scale 0-5
row,SMILES,"Pre-emergence herbicidal damage score, SETFA"
1,"C#CCNC1=C(Cl)C(=O)N(c2cc(C(C)(C)C)on2)C1O (stereo not drawn) [C5, 1-(5-tert-butylisoxazol-3-yl)-4-chloro-2-hydroxy-3-(prop-2-ynylamino)-2H-pyrrol-5-one]",4
2,"CC(C)(C)c1cc(N2C(=O)C(Cl)=C(N)C2O)no1 (stereo not drawn) [C6, 3-amino-1-(5-tert-butylisoxazol-3-yl)-4-chloro-2-hydroxy-2H-pyrrol-5-one]",4
3,CC(C)(C)c1cc(N2C(=O)C(Cl)=C(NC3CCC3)C2O)no1 (stereo not drawn) [C9],0
4,CC(C)(C)CNC1=C(Cl)C(=O)N(c2cc(C(C)(C)C)on2)C1O (stereo not drawn) [C10],0

# Same assay, conditions: ZEAMX, application pre-emergence, rate 1000 g/Ha, scale 0-5
row,SMILES,"Pre-emergence herbicidal damage score, ZEAMX"
1,"C#CCNC1=C(Cl)C(=O)N(c2cc(C(C)(C)C)on2)C1O (stereo not drawn) [C5, 1-(5-tert-butylisoxazol-3-yl)-4-chloro-2-hydroxy-3-(prop-2-ynylamino)-2H-pyrrol-5-one]",3
2,"CC(C)(C)c1cc(N2C(=O)C(Cl)=C(N)C2O)no1 (stereo not drawn) [C6, 3-amino-1-(5-tert-butylisoxazol-3-yl)-4-chloro-2-hydroxy-2H-pyrrol-5-one]",4
3,CC(C)(C)c1cc(N2C(=O)C(Cl)=C(NC3CCC3)C2O)no1 (stereo not drawn) [C9],0
4,CC(C)(C)CNC1=C(Cl)C(=O)N(c2cc(C(C)(C)C)on2)C1O (stereo not drawn) [C10],0
